From patent US6057371A, “Sigma receptor ligands and the use thereof” (Virginia Commonwealth University, priority 1992, dated 2000)

target: PCP receptor; experiment: PCP receptor binding, ^3 H-MK-801; design: species or system rat; details: Table 4
Method: PCP receptor binding assays against ^3 H-MK-801 were conducted as described by Keana et al., Proc. Natl. Acad. Sci (USA) 86: 5631-5635 (1989); Keana et al., Life Sciences 43: 965-973 (1988). For (+) ^3 H-MK-801 binding, 1 nM of radioligand was incubated with about 100 ug of thawed rat brain membrane protein for 4 hr at room temperature. The assays were carried out in 5 mM Tris/acetate and were stopped by rapid filtration through Whatman GF/B or Schleicher & Schuell no. 32 glass fiber filters (presoaked in 0.05% polyethylenamine).

Structure (SMILES) | IC50 [µM]
C[C@@H](Cc1ccccc1)NCCCCCc1ccccc1 [Compound 45, N-(5-phenylpentyl)-1-phenyl-2-propylamine] | > 10
c1ccc(N2CCN(CCCc3ccc4ccccc4c3)CC2)cc1 [Compound 51] | > 10
C[C@H](Cc1ccccc1)NCCCc1cccc2ccccc12 [Compound 11, R(-) N-(1-phenyl-2-propyl)-3-(1-naphthyl)propylamine] | > 10
c1ccc(CCNCCCc2ccc3ccccc3c2)cc1 [Compound 41] | > 10
COc1ccc(CC(C)NCCCc2ccccc2)cc1 (stereo not shown) [Compound 19] | > 10
c1ccc(CCCNC2CCc3ccccc3CC2)cc1 [Compound 49] | > 10
CC(Cc1cccc(Br)c1)NCCCc1ccccc1 (racemic) [Compound 20, (±) N-[1-(3'-Bromophenyl)-2-propyl]-3-phenylpropylamine] | > 10
CC(Cc1cccc(C(F)(F)F)c1)NCCCc1ccccc1 (racemic) [Compound 23, (±) N-[1-(3'-Trifluoromethyl)-2-propyl]-3-phenylpropylamine] | > 10
C[C@H](Cc1ccccc1)NCCCc1ccccc1 [Compound 1, R(-)N-(1-phenyl-2-propyl)-3-phenylpropylamine] | > 10
CCCC(N)Cc1ccccc1 (racemic) [Compound 34, (±) 1-Phenyl-2-aminopentane] | > 10

target: T1, Dopamine D1 receptor (Rattus norvegicus, UniProt P18901); experiment: Dopamine D1 receptor binding, [^3 H]SCH-23390, striatal membranes; details: Table 4
T1 construct: Rat striatal membranes were prepared from frozen tissue; from tissue; host or cells: rat striatum, frozen tissue
Method: (§1) Dopamine D1 and D2 receptor binding assays were performed as described by Billard et al., Life Sci. 35: 1885-1893 (1984) using [^3 H]SCH-23390 for the D1 receptors and [^3 H]domperidone for the D2 receptors (Baudry et al., Arch. Pharmacol. 308: 231-237 (1979).
(§2) Rat striatal membranes were prepared from frozen tissue by Poltron homogenization in 25 volumes of ice cold Tris-EDTA buffer (50 mM Tris-HCl, 1 mM EDTA, pH 7.4 at 4° C.). The homogenate was centrifuged at 48,000× g for 10 min. at 4° C., and the pellet was resuspended in 25 volumes of the same buffer. This suspension was then incubated at 37° C. for 15 min., followed by recentrifugation as before. The resulting pellet was resuspended in 267 volumes of assay buffer (50 mM Tris-HCl, 120 mM NaCl, 5 mM KCl, 2 mM CaCl2, 1 mM MgCl2, pH 7.4 at 37° C.).
(§3) The binding assays were conducted with 100 uL of [^3 H]SCH-23390 or [^3 H]domperidone (to give about 1 nM final), 100 uL of buffer or drug solution, and 800 uL of membrane suspension (to give about 250 ug of striatal membrane protein per assay). The tubes were incubated at 37° C. for 60 min. The assays were stopped by rapid filtration over Schleicher & Schuell #32 or Whatman GF/B glass fiber filters (presoaked in 0.5% polyethyleneimine for [^3 H]domperidone binding), followed by two 3 mL washes of ice cold buffer using a Brandel cell harvester. After vigorous shaking, the filter disks were counted at 52% efficiency in 5 mL of Cytoscint (ICN).

T1 sequence (P18901 whole entry): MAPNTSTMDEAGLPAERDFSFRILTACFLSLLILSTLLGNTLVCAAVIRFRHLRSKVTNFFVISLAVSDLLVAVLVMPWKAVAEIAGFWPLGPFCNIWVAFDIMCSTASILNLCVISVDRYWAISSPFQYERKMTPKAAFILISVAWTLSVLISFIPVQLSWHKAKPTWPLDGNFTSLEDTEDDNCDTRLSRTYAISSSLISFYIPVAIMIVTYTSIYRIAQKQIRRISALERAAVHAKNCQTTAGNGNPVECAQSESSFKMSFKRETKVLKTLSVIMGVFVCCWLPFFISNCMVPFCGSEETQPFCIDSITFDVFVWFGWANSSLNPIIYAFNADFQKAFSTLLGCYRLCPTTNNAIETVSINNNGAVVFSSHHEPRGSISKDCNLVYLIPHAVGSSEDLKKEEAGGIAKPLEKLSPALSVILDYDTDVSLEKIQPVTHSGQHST

Structure (SMILES) | IC50 [µM]
c1ccc(N2CCN(CCCc3ccc4ccccc4c3)CC2)cc1 [Compound 51] | 2.99 ± 0.04
c1ccc(CCNCCCc2ccc3ccccc3c2)cc1 [Compound 41] | > 10
COc1ccc(CC(C)NCCCc2ccccc2)cc1 (stereo not shown) [Compound 19] | > 10
c1ccc(CCCNC2CCc3ccccc3CC2)cc1 [Compound 49] | > 10
C[C@H](Cc1ccccc1)NCCCc1ccccc1 [Compound 1, R(-)N-(1-phenyl-2-propyl)-3-phenylpropylamine] | > 10

target: T2, Dopamine D2 receptor (Rattus norvegicus, UniProt P61169); experiment: Dopamine D2 receptor binding, [^3 H]domperidone, striatal membranes; details: Table 4
T2 construct: Rat striatal membranes were prepared from frozen tissue; from tissue; host or cells: rat striatum, frozen tissue
Method: as §1, §2, §3

T2 sequence (P61169 whole entry): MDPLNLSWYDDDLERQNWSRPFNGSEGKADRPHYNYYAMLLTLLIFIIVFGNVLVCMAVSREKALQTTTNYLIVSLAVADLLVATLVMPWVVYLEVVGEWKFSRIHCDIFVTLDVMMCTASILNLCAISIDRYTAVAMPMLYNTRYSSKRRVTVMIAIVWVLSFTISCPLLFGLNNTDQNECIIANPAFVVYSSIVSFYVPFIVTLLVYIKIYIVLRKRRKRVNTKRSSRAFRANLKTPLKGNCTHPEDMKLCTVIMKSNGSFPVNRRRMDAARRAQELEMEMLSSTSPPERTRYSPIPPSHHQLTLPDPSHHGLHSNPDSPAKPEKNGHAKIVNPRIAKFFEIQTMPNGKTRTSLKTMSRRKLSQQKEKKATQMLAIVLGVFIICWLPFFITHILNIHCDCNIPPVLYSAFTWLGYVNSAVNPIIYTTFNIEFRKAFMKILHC

Structure (SMILES) | IC50 [nM]
c1ccc(N2CCN(CCCc3ccc4ccccc4c3)CC2)cc1 [Compound 51] | 158 ± 28
c1ccc(CCNCCCc2ccc3ccccc3c2)cc1 [Compound 41] | 1920 ± 190
C[C@H](Cc1ccccc1)NCCCc1ccccc1 [Compound 1, R(-)N-(1-phenyl-2-propyl)-3-phenylpropylamine] | 4650 ± 430

target: T3, sigma-1 binding site (Cavia porcellus, UniProt Q60492); experiment: biochemical; design: species or system guinea pig; details: not given
T3 construct: Guinea pig whole membrane preparations (P2 microsomal fraction); from tissue; host or cells: guinea pig membranes (P2 microsomal fraction), as described by Weber et al; brain inferred from the sister test b489
Method: [^3 H]DTG was purchased from DuPont/NEN.
The radioactivity on the filters was determined by scintillation spectrometry at an efficiency of about 50% using Cytoscint (ICN) scintillation fluid.

T3 sequence (Q60492 whole entry): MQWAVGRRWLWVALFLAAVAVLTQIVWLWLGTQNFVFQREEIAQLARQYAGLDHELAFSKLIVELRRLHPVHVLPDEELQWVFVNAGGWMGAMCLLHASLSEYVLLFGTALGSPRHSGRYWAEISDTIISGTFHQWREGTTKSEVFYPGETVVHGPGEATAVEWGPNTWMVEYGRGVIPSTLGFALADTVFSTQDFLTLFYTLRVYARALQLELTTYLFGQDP

Structure (SMILES) | IC50 [nM] | change in sigma-1 affinity vs. compound No. 1, words
C[C@@H](Cc1ccccc1)NCCCCCc1ccccc1 [Compound 45, N-(5-phenylpentyl)-1-phenyl-2-propylamine] | 0.88 | substantially increases affinity

same assay, conditions: SIGMA-1 KI vs. 3H-P[…]

Structure (SMILES) | Ki [nM]
C[C@@H](Cc1ccccc1)NCCCCCc1ccccc1 [Compound 45, N-(5-phenylpentyl)-1-phenyl-2-propylamine] | 0.88

same assay, conditions: Table 10; read-out: SIGMA-1 KI vs. 3H-PENTAZOCINE MEAN

Structure (SMILES) | Ki [nM]
CC(Cc1cccc(Br)c1)NCCCc1ccccc1 (racemic) [Compound 20, (±) N-[1-(3'-Bromophenyl)-2-propyl]-3-phenylpropylamine] | 9.65
CC(Cc1cccc(C(F)(F)F)c1)NCCCc1ccccc1 (racemic) [Compound 23, (±) N-[1-(3'-Trifluoromethyl)-2-propyl]-3-phenylpropylamine] | 8.75
CCCC(N)Cc1ccccc1 (racemic) [Compound 34, (±) 1-Phenyl-2-aminopentane] | 1180

same assay, conditions: Table 10; sigma-1/sigma-2

Structure (SMILES) | S1/S2 Ratio
CC(Cc1cccc(Br)c1)NCCCc1ccccc1 (racemic) [Compound 20, (±) N-[1-(3'-Bromophenyl)-2-propyl]-3-phenylpropylamine] | 0.369
CC(Cc1cccc(C(F)(F)F)c1)NCCCc1ccccc1 (racemic) [Compound 23, (±) N-[1-(3'-Trifluoromethyl)-2-propyl]-3-phenylpropylamine] | 0.420
CCCC(N)Cc1ccccc1 (racemic) [Compound 34, (±) 1-Phenyl-2-aminopentane] | 0.115

same assay, conditions: Table 12; read-out: IC50 (nM) at sigma-1

Structure (SMILES) | IC50 [nM]
CC(Cc1cccc(Br)c1)NCCCc1ccccc1 (racemic) [Compound 20, (±) N-[1-(3'-Bromophenyl)-2-propyl]-3-phenylpropylamine] | 9.6
CC(Cc1cccc(C(F)(F)F)c1)NCCCc1ccccc1 (racemic) [Compound 23, (±) N-[1-(3'-Trifluoromethyl)-2-propyl]-3-phenylpropylamine] | 8.8

same assay, conditions: Table 13; read-out: Sigma-1 IC50

Structure (SMILES) | IC50 [nM]
C[C@H](Cc1ccccc1)NCCCc1cccc2ccccc12 [Compound 11, R(-) N-(1-phenyl-2-propyl)-3-(1-naphthyl)propylamine] | 8.6

same assay, conditions: guinea pig, microsomes

Structure (SMILES) | S1/S2 Ratio
C[C@@H](Cc1ccccc1)NCCCCCc1ccccc1 [Compound 45, N-(5-phenylpentyl)-1-phenyl-2-propylamine] | .048

target: T4, sigma-2 binding site (Cavia porcellus, UniProt H0V073); experiment: biochemical; design: species or system guinea pig; details: Example 9
T4 construct: Guinea pig whole membrane preparations (P2 microsomal fraction); from tissue; host or cells: guinea pig membranes (P2 microsomal fraction), as described by Weber et al; brain inferred from the sister test b489
T4 sequence (H0V073 1-176): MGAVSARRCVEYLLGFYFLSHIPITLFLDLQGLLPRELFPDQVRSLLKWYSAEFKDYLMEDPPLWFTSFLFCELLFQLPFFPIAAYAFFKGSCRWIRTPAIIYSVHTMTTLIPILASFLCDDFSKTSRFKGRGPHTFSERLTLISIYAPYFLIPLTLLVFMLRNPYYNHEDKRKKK
Method: For the standard equilibrium assay, the mixtures were incubated for 30 min. at room temperature, then filtered and the radioactivity determined as described above.

Structure (SMILES) | reduction in sigma-2 affinity vs. cmp. #1
C[C@H](Cc1ccccc1)NCCCc1cccc2ccccc12 [Compound 11, R(-) N-(1-phenyl-2-propyl)-3-(1-naphthyl)propylamine] | about 4 fold

same assay, conditions: Example 9; read-out: sigma-2 binding affinity

Structure (SMILES) | Ki [nM]
C[C@H](Cc1ccccc1)NCCCc1ccccc1 [Compound 1, R(-)N-(1-phenyl-2-propyl)-3-phenylpropylamine] | 60

same assay, conditions: SIGMA-2 KI vs. 3H-DTG + P[…]

Structure (SMILES) | Ki [nM]
C[C@@H](Cc1ccccc1)NCCCCCc1ccccc1 [Compound 45, N-(5-phenylpentyl)-1-phenyl-2-propylamine] | 18.5

same assay, conditions: Table 10; read-out: SIGMA-2 KI vs. 3H-DTG + PENTAZOCINE MEAN

Structure (SMILES) | Ki [nM]
CC(Cc1cccc(Br)c1)NCCCc1ccccc1 (racemic) [Compound 20, (±) N-[1-(3'-Bromophenyl)-2-propyl]-3-phenylpropylamine] | 26.1
CC(Cc1cccc(C(F)(F)F)c1)NCCCc1ccccc1 (racemic) [Compound 23, (±) N-[1-(3'-Trifluoromethyl)-2-propyl]-3-phenylpropylamine] | 20.8
C[C@H](Cc1ccccc1)NCCCc1ccccc1 [Compound 1, R(-)N-(1-phenyl-2-propyl)-3-phenylpropylamine] | 60.8
CCCC(N)Cc1ccccc1 (racemic) [Compound 34, (±) 1-Phenyl-2-aminopentane] | 10300

same assay, conditions: Table 17; read-out: IC50 (nM) at sigma-2

Structure (SMILES) | IC50 [nM]
CC(Cc1cccc(Br)c1)NCCCc1ccccc1 (racemic) [Compound 20, (±) N-[1-(3'-Bromophenyl)-2-propyl]-3-phenylpropylamine] | 26
CC(Cc1cccc(C(F)(F)F)c1)NCCCc1ccccc1 (racemic) [Compound 23, (±) N-[1-(3'-Trifluoromethyl)-2-propyl]-3-phenylpropylamine] | 21
C[C@H](Cc1ccccc1)NCCCc1ccccc1 [Compound 1, R(-)N-(1-phenyl-2-propyl)-3-phenylpropylamine] | 60

target: T5, 5-HT1A receptor (Rattus norvegicus, UniProt P19327); experiment: biochemical; assay type: binding; design: 47: 529-540 (1986); from tissue; host or cells: brain tissue, inferred from the cited method (rat frontal cortex); details: not given
T5 sequence (P19327 1-422): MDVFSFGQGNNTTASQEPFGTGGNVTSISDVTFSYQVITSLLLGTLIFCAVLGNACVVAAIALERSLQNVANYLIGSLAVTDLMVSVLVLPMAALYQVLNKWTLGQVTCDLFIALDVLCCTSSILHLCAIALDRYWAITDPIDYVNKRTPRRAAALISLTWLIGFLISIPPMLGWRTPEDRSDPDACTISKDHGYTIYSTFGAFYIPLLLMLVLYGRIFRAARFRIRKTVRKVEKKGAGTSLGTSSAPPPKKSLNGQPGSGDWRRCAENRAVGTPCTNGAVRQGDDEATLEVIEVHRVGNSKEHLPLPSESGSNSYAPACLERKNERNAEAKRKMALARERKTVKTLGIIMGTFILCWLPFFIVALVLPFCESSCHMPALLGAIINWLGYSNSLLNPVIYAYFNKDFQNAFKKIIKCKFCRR
Method: Further sigma receptor binding assays against [^3 H]DTG and 5HT-1A binding assays were conducted according to the procedure outlined in the previous examples.

Structure (SMILES) | IC50 [nM] | Ratio 5-HT1A /σ
C[C@@H](Cc1ccccc1)NCCCCCc1ccccc1 [Compound 45, N-(5-phenylpentyl)-1-phenyl-2-propylamine] | 594 | 100
COc1ccc(CC(C)NCCCc2ccccc2)cc1 (stereo not shown) [Compound 19] | – | 7.6
c1ccc(CCCNC2CCc3ccccc3CC2)cc1 [Compound 49] | – | 30

same assay, conditions: Table 5

Structure (SMILES) | Ratio 5-HT1A /σ
C[C@H](Cc1ccccc1)NCCCc1cccc2ccccc12 [Compound 11, R(-) N-(1-phenyl-2-propyl)-3-(1-naphthyl)propylamine] | 11
c1ccc(CCNCCCc2ccc3ccccc3c2)cc1 [Compound 41] | 7.6
CC(Cc1cccc(Br)c1)NCCCc1ccccc1 (racemic) [Compound 20, (±) N-[1-(3'-Bromophenyl)-2-propyl]-3-phenylpropylamine] | 17
CC(Cc1cccc(C(F)(F)F)c1)NCCCc1ccccc1 (racemic) [Compound 23, (±) N-[1-(3'-Trifluoromethyl)-2-propyl]-3-phenylpropylamine] | 25
CCCC(N)Cc1ccccc1 (racemic) [Compound 34, (±) 1-Phenyl-2-aminopentane] | 2.6

same assay, conditions: Table 5; read-out: 5-HT1A IC50

Structure (SMILES) | IC50 [nM]
C[C@H](Cc1ccccc1)NCCCc1cccc2ccccc12 [Compound 11, R(-) N-(1-phenyl-2-propyl)-3-(1-naphthyl)propylamine] | 104
c1ccc(CCNCCCc2ccc3ccccc3c2)cc1 [Compound 41] | 34.7
COc1ccc(CC(C)NCCCc2ccccc2)cc1 (stereo not shown) [Compound 19] | 114
c1ccc(CCCNC2CCc3ccccc3CC2)cc1 [Compound 49] | 313
CC(Cc1cccc(Br)c1)NCCCc1ccccc1 (racemic) [Compound 20, (±) N-[1-(3'-Bromophenyl)-2-propyl]-3-phenylpropylamine] | 108
CC(Cc1cccc(C(F)(F)F)c1)NCCCc1ccccc1 (racemic) [Compound 23, (±) N-[1-(3'-Trifluoromethyl)-2-propyl]-3-phenylpropylamine] | 106
C[C@H](Cc1ccccc1)NCCCc1ccccc1 [Compound 1, R(-)N-(1-phenyl-2-propyl)-3-phenylpropylamine] | 115
CCCC(N)Cc1ccccc1 (racemic) [Compound 34, (±) 1-Phenyl-2-aminopentane] | 6650
